Source: PMC9629815, “MK256 is a novel CDK8 inhibitor with potent antitumor activity in AML through downregulation of the STAT pathway” (Oncotarget, 2022)
Where two headings read alike, the source gives them in different places.

Legend:
KG-1 = assay: Cell proliferation assay (CellTiter-Glo, 7-day); type: cell-based; conditions: Homo sapiens, KG-1, 168 h
Protocol: (§1) AML cell lines MV-4-11, MOLM14, KG-1, and SKNO-1 were acquired from ATCC (Manassas, VA, USA) and DSMZ (Braunschweig, Germany). Cells were plated (96-well) in triplicate at 3000 cells per well for testing (n = 3) in 1% FBS media. On day 7, the CellTiter-Glo Luminescent Cell Viability Assay (Promega, Madison, WI, US) was performed to measure the response. Two independent experiments were done.

NOMO-1 = assay: Cell proliferation assay (CellTiter-Glo, 7-day); type: cell-based; conditions: Homo sapiens, NOMO-1, 168 h
Protocol: [The procedure below names another cell line; the source lists this cell line under the same test.] as §1

MOLM-13 = assay: Cell proliferation assay (CellTiter-Glo, 7-day); type: cell-based; conditions: Homo sapiens, MOLM-13, 168 h
Protocol: [The procedure below names another cell line; the source lists this cell line under the same test.] as §1

HEL = assay: Cell proliferation assay (CellTiter-Glo, 7-day); type: cell-based; conditions: Homo sapiens, 168 h
Protocol: [The procedure below names another cell line; the source lists this cell line under the same test.] as §1

MUTZ-8 = assay: Cell proliferation assay (CellTiter-Glo, 7-day); type: cell-based; conditions: MUTZ-8, 168 h
Protocol: [The procedure below names another cell line; the source lists this cell line under the same test.] as §1

MONO-MAC-6 = assay: Cell proliferation assay (CellTiter-Glo, 7-day); type: cell-based; conditions: Homo sapiens, MONO-MAC-6, 168 h
Protocol: [The procedure below names another cell line; the source lists this cell line under the same test.] as §1

SKNO-1 = assay: Cell proliferation assay (CellTiter-Glo, 7-day); type: cell-based; conditions: SKNO-1, 168 h
Protocol: as §1

MOLM-14 = assay: Cell proliferation assay (CellTiter-Glo, 7-day); type: cell-based; conditions: Homo sapiens, MOLM-14, 168 h
Protocol: as §1

MV-4-11 = assay: Cell proliferation assay (CellTiter-Glo, 7-day); type: cell-based; conditions: Homo sapiens, MV4-11, 168 h
Protocol: as §1

MOLM-14 xenograft model = assay: MOLM-14 xenograft efficacy study, single agent; type: in vivo, NOD SCID mice; conditions: 50 mg/kg twice a day
Protocol: These favorable properties led us to evaluate the efficacy of MK256 in vivo using the MOLM-14 cell line to examine if the compound could inhibit tumor growth in the MOLM-14 xenograft model. Mice were given 100 ul of 50 mg/kg of MK256 or 100 ul of saline twice a day for 21 days following a 5-day on/ 2-day off schedule. Tumors from two groups of mice were all initially ~ 300 mm^3. Tumors of the mice in the control group continued to grow quickly during the 21-day period, with the average tumor volume reaching 1600 mm^3 on day 22, when we measured tumors for the last time. In the contrast, tumors of the mice in the treatment group shrank to 200 mm^3 on average by day 22 (Figure 9A). Average tumor weight was 0.16 g for the treatment group and 1.85 g for the control group (Figure 9B). […] Tumors collected on day 22 were then processed and analyzed with western blot.
Female NOD SCID mice were purchased from Charles River Laboratories (Wilmington, USA) or bred at the animal facilities of the University of California San Francisco. All animal experiments were carried out under protocols approved by the Institutional Animal Care and Use Committee of the University of California San Francisco. For MOLM-14 model, 200 ul of 1 × 10^6 cells combined with matrigel (v/v, 1:1) were injected subcutaneously in the right flank of NODSCID mice. Tumors were allowed to grow for two weeks to reach a tumor volume about 200 mm^3 before mice were randomly grouped. The animals were treated for three weeks on a 5 days on/2 days off schedule by oral gavage with MK256 (dissolved in saline) alone or in combination with Venetoclax (dissolved in 5% DMSO + 50% PEG 300 + 5% Tween 80 + ddH2O). In the single treatment study, MK256 was administered by mice twice a day at 50 mg/kg. In the combination study, MK256 (10 or 50 mg/kg) and was coadministered with Venetoclax (25 mg/kg) once a day. Tumor volume and body weight were monitored once every 3 days. Tumor volume was calculated as L × W^2/2, where L and W were the length and width of the tumor, respectively.

[1] = Histological analysis (H&E) of major organs after 21 days treatment; type: in vivo, mice; conditions: 100 mg/kg, q.d., oral
Protocol: To evaluate the behavior of MK256 in vivo we did a full pharmacokinetics (PK) analysis of MK256 in mice. […] In the MOLM-14 xenograft model, we treated mice with 10 mg/kg, 50 mg/kg and 100 mg/kg of MK256 for 6 hrs, after which tumors from each treatment group were harvested and processed for western blotting analysis. […] We also performed a histological analysis of the major organs (bone, brain, heart, intestine, kidney, liver and lung) of mice after they were treated with 100 mg/kg of MK256 for 21 days (q.d, oral) (Figure 8). […] In summary, MK256 offered a desirable solubility, permeability, hepatocyte stability, toxicology, and pharmacokinetics/pharmacodynamics (PK/PD) profile.
Figure 8 Evaluation of the toxicity of MK256 in vivo. Histological data (H&E staining) obtained in the major organs (bone, brain, heart, intestine, kidney, liver, and lung) of the mice treated with MK256 (100 mg/kg, q.d., oral) for 21 days.

CDK9 = CDK9 (Homo sapiens, UniProt P50750); assay: SelectScreen kinase profiling, IC50; type: biochemical
Text: (§2) MK256 was synthesized in house. The kinase profiling of MK256 against various targets was done using the SelectScreen Kinase Profiling Services provided by ThermoFisher Scientific (Walham WA, USA). https://www.thermofisher.com/us/en/home/products-and-services/services/custom-services/screening-and-profiling-services/selectscreen-profiling-service/selectscreen-kinase-profiling-service.html.

CDK8/cyclin C = CDK8/cyclin C (Homo sapiens, UniProt P49336); assay: SelectScreen kinase profiling, IC50; type: biochemical; conditions: read-out: IC50 against CDK8/cyclin C
Text: as §2

CDK19/cyclin C = CDK19/cyclin C (Homo sapiens, UniProt Q9BWU1); assay: SelectScreen kinase profiling, IC50; type: biochemical; conditions: read-out: IC50 against CDK19/cyclin C
Text: as §2

CYP1A2 = CYP1A2 (Homo sapiens, UniProt P05177); assay: Cytochrome P450 inhibition assay; type: in vitro ADME; conditions: 50 uM
[2] = 7-day, bound given in text, read-out: IC50

Chain of CDK9 (P50750 whole entry): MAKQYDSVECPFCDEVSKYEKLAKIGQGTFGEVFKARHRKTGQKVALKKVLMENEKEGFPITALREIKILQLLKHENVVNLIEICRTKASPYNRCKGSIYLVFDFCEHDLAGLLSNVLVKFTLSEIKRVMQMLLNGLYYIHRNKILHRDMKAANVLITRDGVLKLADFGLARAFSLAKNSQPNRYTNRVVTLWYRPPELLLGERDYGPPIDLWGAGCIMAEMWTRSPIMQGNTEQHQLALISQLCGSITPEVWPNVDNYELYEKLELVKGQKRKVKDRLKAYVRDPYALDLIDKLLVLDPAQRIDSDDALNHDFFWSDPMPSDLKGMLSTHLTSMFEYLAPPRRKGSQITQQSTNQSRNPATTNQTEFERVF
Chain of CDK9 (O60563 whole entry partner): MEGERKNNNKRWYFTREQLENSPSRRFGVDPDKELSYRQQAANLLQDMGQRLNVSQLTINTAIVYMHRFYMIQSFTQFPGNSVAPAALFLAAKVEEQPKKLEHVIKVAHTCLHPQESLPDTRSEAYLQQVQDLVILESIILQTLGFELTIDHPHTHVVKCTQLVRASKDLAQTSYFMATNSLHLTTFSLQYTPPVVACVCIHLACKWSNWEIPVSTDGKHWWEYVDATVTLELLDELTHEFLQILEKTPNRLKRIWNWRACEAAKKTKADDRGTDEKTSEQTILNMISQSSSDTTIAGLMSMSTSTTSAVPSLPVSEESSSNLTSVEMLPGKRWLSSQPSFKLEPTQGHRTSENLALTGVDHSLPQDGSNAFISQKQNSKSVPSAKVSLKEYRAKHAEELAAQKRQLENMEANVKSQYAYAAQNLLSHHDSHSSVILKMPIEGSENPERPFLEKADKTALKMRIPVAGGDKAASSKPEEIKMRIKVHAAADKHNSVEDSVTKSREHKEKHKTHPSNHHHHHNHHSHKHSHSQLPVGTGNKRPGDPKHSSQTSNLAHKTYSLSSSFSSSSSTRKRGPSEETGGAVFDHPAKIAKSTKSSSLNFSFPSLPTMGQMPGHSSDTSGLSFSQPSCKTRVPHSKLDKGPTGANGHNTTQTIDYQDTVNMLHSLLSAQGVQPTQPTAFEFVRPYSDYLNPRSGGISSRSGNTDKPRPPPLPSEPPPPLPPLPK
Chain of CYP1A2 (P05177 whole entry): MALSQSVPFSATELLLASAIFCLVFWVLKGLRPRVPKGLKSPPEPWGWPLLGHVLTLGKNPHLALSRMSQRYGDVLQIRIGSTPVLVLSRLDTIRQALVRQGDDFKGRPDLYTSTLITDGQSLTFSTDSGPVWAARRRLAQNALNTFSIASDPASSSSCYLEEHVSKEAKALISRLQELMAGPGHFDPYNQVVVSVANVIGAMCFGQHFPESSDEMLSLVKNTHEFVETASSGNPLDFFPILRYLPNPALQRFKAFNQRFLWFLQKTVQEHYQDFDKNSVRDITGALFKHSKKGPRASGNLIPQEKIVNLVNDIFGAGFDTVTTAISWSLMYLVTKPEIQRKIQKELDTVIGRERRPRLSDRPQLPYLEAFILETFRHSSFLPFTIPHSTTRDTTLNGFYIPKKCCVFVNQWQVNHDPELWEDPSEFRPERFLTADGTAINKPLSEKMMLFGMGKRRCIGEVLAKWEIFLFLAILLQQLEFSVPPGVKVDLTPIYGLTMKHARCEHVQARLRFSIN
Chain of CDK8/cyclin C (P49336 whole entry): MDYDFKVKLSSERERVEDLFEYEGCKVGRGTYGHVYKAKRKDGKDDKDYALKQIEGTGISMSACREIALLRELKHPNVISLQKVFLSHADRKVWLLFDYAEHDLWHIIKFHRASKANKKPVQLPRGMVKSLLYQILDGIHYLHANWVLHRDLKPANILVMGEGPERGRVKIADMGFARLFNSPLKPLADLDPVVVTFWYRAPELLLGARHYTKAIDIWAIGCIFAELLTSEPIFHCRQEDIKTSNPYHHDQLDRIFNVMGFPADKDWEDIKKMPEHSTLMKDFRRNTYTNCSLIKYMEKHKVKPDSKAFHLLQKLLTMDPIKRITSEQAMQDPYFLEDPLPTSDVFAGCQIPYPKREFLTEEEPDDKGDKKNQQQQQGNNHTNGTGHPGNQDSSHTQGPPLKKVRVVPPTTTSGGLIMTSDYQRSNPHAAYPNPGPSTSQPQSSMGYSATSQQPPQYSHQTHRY
Chain of CDK8/cyclin C (P24863 whole entry partner): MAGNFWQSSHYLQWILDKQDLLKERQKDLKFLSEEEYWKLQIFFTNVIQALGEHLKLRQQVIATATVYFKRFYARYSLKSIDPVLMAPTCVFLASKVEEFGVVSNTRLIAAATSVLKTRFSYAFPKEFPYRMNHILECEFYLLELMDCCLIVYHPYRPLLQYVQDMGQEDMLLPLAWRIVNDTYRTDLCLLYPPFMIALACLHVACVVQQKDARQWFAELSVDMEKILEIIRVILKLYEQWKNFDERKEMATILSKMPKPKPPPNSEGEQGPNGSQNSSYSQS
Chain of CDK19/cyclin C (Q9BWU1 whole entry): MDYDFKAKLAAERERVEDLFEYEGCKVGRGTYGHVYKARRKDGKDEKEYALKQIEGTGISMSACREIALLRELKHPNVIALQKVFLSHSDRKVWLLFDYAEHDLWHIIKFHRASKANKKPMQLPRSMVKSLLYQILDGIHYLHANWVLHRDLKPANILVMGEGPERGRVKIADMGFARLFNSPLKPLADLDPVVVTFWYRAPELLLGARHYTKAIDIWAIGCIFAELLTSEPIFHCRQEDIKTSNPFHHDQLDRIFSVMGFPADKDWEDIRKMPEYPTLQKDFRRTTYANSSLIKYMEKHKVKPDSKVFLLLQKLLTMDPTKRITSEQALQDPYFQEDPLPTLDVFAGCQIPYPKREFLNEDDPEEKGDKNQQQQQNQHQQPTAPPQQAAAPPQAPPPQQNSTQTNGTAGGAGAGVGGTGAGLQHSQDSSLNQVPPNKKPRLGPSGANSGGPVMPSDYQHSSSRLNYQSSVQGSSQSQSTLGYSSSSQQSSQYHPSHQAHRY
Chain of CDK19/cyclin C (P24863 whole entry partner): as the sequence (P24863 whole entry partner) above

Q: With Nc1nccc2c(Br)cc3cc(C(=O)O)ccc3c12 [MK256] as the compound, how does the IC50 (KG-1) read?
A: 80 nM

Q: And the IC50 (NOMO-1)?
A: 646 nM

Q: And the IC50 (MOLM-13)?
A: 1050 nM

Q: And the IC50 (HEL; [2])?
A: > 2000 nM

Q: What about the IC50 (HEL; read-out: IC50 nM (7-day)) of the same compound?
A: 2700 nM

Q: And the IC50 (MUTZ-8; [2])?
A: > 2000 nM

Q: And the IC50 (MUTZ-8; read-out: IC50 nM (7-day))?
A: 5560 nM

Q: What about the IC50 (MONO-MAC-6) of the same compound?
A: 1260 nM

Q: And the IC50 (SKNO-1)?
A: 73 nM

Q: And the IC50 (MOLM-14)?
A: 24 nM

Q: What about the IC50 (MV-4-11) of the same compound?
A: 23 nM

Q: And the “expression level of p-STAT1(S727) and p-STAT5(S726) in tumors collected on day 22” value (MOLM-14 xenograft model)?
A: down regulate

Q: And the “average tumor volume on day 22” value (MOLM-14 xenograft model; 5-day on/2-day off, 21 days, start ~300 mm^3, control 1600 mm^3)?
A: 200 mm^3

Q: What about the average tumor weight (MOLM-14 xenograft model; day 22, control 1.85 g) of the same compound?
A: 0.16 g

Q: What about the “average body weight at end of study” value (MOLM-14 xenograft model; from 23.5 g at start, control 23.4 g to 25.7 g) of the same compound?
A: 23.9 g

Q: And the “histology of major organs (bone, brain, heart, intestine, kidney, liver and lung)” value [1]?
A: did not cause visible pathological changes

Q: What about the “fold reduction of activity against CDK9 in comparison to CDK8” value (CDK9; CDK9 IC50 vs CDK8 IC50) of the same compound?
A: approximately 40 fold

Q: And the IC50 (CDK9; read-out: IC50 against CDK9)?
A: 105 nM

Q: What about the IC50 (CDK8/cyclin C) of the same compound?
A: 2.5 nM

Q: And the IC50 (CDK19/cyclin C)?
A: 3.3 nM

Q: And the “cytochrome P450 inhibition” value (CYP1A2)?
A: no inhibition
